Assay results as given in US20220184183A1, “PHARMACEUTICAL COMPOSITION, FOR PREVENTING OR TREATING INFLAMMATORY DISEASES, COMPRISING OSTEOCALCIN” (GENEROATH CO., LTD., priority 2019, published 2022).
Where no end group is shown, it is not given here.

How the values were obtained:
Type in all cases: cell-based
NF-κB promoter = experiment: TNF-α-induced NF-κB promoter (luciferase) activity; conditions: stated in the description, no method given
JNK, p38 MAPK, and NF-κB = experiment: Subcellular signaling in TNF-α-stimulated skeletal muscle cells (western blot); conditions: C2C12; ucOCN 0.5 ng/ml pretreatment 1, 10, 30 minutes; TNF-α 10 ng/ml; FIG. 4
Description: In order to observe the effect of undercarboxylated osteocalcin on the subcellular signaling process on the inflammatory response induced by TNF-α in skeletal muscle cells, the following experiment was performed.
(§1) Undercarboxylated osteocalcin (ucOCN) was treated at a concentration of 0.5 ng/ml in the medium (DMEM medium containing 10% heat-inactivated fetal bovine serum (FBS), 100 U/mL of penicillin and […] of streptomycin, hereinafter the same), and skeletal muscle cell lines (C2C12) were prepared in three groups, and cultured and pre-treated at 5% CO2, 37° C. for 1 minute, 10 minutes, and 30 minutes, respectively.
(§2) In order to induce an inflammatory response, each medium was treated with TNF-α 10 ng/ml, and cultured for 8 hours under the same conditions.
For the cultured cells of each group, the protein amount and phosphorylation level of JNK, p38 MAPK, and NF-κB in each group were measured through western blot.

[1] = tested on: macrophage cell lines (RAW 264.7); experiment: TNF-α-induced inflammatory cytokines and inflammatory mediating enzyme proteins in immune cells (ELISA, western blot); conditions: ucOCN 0.5, 5, 50 ng/ml pretreatment 8, 24, 48 hours, then TNF-α 10 ng/ml 8 hours, FIGS. 7 and 8
Description: First, macrophage cell lines (RAW 264.7) were obtained as immune cells. Undercarboxylated osteocalcin (ucOCN) was treated in a medium at four different concentrations of 0 ng/ml, 0.5 ng/ml, 5 ng/ml and 50 ng/ml, and macrophage cell lines were prepared in three groups and cultured and pre-treated at 5% CO2, 37° C. for 8 hours, 24 hours, and 48 hours, respectively.
In order to induce an inflammatory response, each medium was treated with 10 ng/ml of TNF-α, and cultured for 8 hours under the same conditions to obtain a supernatant.
In order to observe changes in the expression level of TNF-α-induced inflammatory cytokines (TNF-α and IL-6) and inflammatory mediating enzyme proteins (iNOS and COX-2) in immune cells by undercarboxylated osteocalcin, the following experiments were performed.
In each supernatant obtained from Example 2.1 above, the concentrations of TNF-α, IL-1β and IL-6 were measured through ELISA, and the expression level of […] was identified through western blot.

[2] = tested on: skeletal muscle cell line (C2C12); experiment: Level of reactive oxygen species in TNF-α-stimulated skeletal muscle cells (DAPI and CellRox staining); conditions: ucOCN 0.5 and 5 ng/ml vs untreated group, TNF-α 10 ng/ml, FIG. 3
Description: (§3) First, skeletal muscle cell lines (C2C12) were obtained. Undercarboxylated osteocalcin (ucOCN, purchased from Bachem, Switzerland) was treated in a medium (DMEM medium containing 10% heat-inactivated fetal bovine serum (FBS), 100 U/mL of penicillin and […] of streptomycin, hereinafter the same) at four different concentrations of 0 ng/ml, 0.5 ng/ml, 5 ng/ml and 50 ng/ml, and skeletal muscle cell lines (C2C12) were prepared in three groups and cultured and pre-treated at 5% CO2, 37° C. for 8 hours, 24 hours, and 48 hours, respectively.
(§4) In order to induce an inflammatory response, each medium was treated with 10 ng/ml of TNF-α (purchased from Peprotech, USA), and cultured for 8 hours under the same conditions.
In order to identify the level of reactive oxygen species (ROS) in the undercarboxylated osteocalcin-treated cells by being induced inflammatory response with TNF-α in skeletal muscle cells, the following experiment was performed.
The cells obtained in Example 1.1 above were stained with DAPI and CellRox, and observed under a microscope.

NF-κB = experiment: Inhibition of TNF-α-induced NF-κB activity in skeletal muscle cells (western blot, immunofluorescence)
Description: In order to observe the effect of undercarboxylated osteocalcin on the activity of NF-κB induced by TNF-α in skeletal muscle cells, the following experiment was performed.
as §1, §2
For the cultured cells of each group, the phosphorylation level and the protein amounts in the nucleus of IκBα, IKK (hereinafter, intracytoplasmic) and P65 NF-κB in each group were measured through western blot, and immunofluorescence analysis for each group was performed.

[3] = tested on: skeletal muscle cell line (C2C12); experiment: TNF-α-induced inflammatory cytokine production in skeletal muscle cells (ELISA, Real-Time PCR, western blot)
Description: as §3, §4
In order to observe the change in the expression level of TNF-α-induced inflammatory cytokines (TNF-α, IL-1β and IL-6) in skeletal muscle cells due to undercarboxylated osteocalcin, the following experiment was performed.
In the cells obtained from Example 1.1 above, the concentrations of TNF-α, IL-1β and IL-6 were measured through ELISA, and the expression levels of RNA and protein of IL-1β and IL-6 were identified through Real-Time PCR and western blot.

Q: For “undercarboxylated osteocalcin (YLYQWLGAPVPYPDPLEPRREVCELNPDCDELADHIGFQEAYRRFYGPV; not fully specified; ends and bridges not checked; UniProt P02818 52-100, looked up) [osteocalcin in which at least one of the three gamma-carboxylglutamate residues is not γ-carboxylated; purchased from Bachem, Switzerland]”, which “TNF-α-induced NF-κB luciferase activity” value (NF-κB promoter) is on record?
A: significantly inhibits

Q: And the “protein amount of NF-κB” value (JNK, p38 MAPK, and NF-κB)?
A: significantly inhibited

Q: What about the “protein amounts and phosphorylation levels of JNK and p38 MAPK” value (JNK, p38 MAPK, and NF-κB) of the same substance?
A: significantly inhibited

Q: And the “production of inflammatory cytokines TNF-α, IL-1β, IL-6 and inflammatory mediating enzyme proteins iNOS and COX-2” value [1]?
A: inhibited the production of inflammatory cytokines and inflammatory mediating enzyme proteins

Q: What about the “level of reactive oxygen species” value [2] of the same substance?
A: significantly inhibited

Q: And the “cytoplasmic-to-nuclear translocation of NF-κB induced by TNF-α” value (NF-κB; C2C12, immunofluorescence analysis, FIG. 6)?
A: inhibited cytoplasmic-to-nuclear translocation of NF-κB

Q: And the “PHOPHO-IκBα and total IκBα (TNF-α alone: phospho increased, total decreased)” value (NF-κB; C2C12 cytoplasm, ucOCN 0.5 ng/ml, TNF-α 10 ng/ml, FIG. 5)?
A: showed the opposite result

Q: What about the IL-1β production ([3]; TNF-α 10 ng/ml, FIG. 1) of the same substance?
A: inhibitory effect of IL-1β production among inflammatory cytokines was remarkably shown

Q: And the “IL-1β production (protein amount)” value ([3]; all treatment concentrations of ucOCN (0.5, 5, 50 ng/ml), FIG. 2)?
A: remarkable production inhibitory effect

Q: And the “inhibition of inflammatory cytokine production by treatment time” value ([3]; group treated with ucOCN for 8 hours and 48 hours, FIG. 1)?
A: remarkably excellent inhibitory effect

Q: And the “TNF-α (protein amount)” value ([3]; group treated with ucOCN for 8 hours, FIG. 2)?
A: excellent inhibitory effect

Q: And the “IL-6 (protein amount)” value ([3]; ucOCN 0.5 ng/ml and 5 ng/ml within 24 hours, FIG. 2)?
A: remarkable inhibitory effect

Q: What about the “production of inflammatory cytokines TNF-α, IL-1β and IL-6” value ([3]; ucOCN 0.5, 5, 50 ng/ml pretreatment 8, 24, 48 hours, then TNF-α 10 ng/ml 8 hours, FIG. 1) of the same substance?
A: inhibited the production of inflammatory cytokines
